Assay results as given in patent US20190151266A1, “PHARMACEUTICAL COMPOSITION FOR TREATING OR PREVENTING BURN INJURIES” (priority 2016, published 2019).

How the values were obtained:
TRPV ion channels = experiment: TRPV ion channel activity: 2-APB-induced intracellular calcium change in nociceptive sensory cells (Fluo-4-AM); type: cell-based, white rats
Procedure: After fl 1 nociceptive sensory cell lines in white rats incubated with the compound of Formula 1 for 24 hours were pretreated, TRPV ion channel activities were measured. The fl 1 cell lines were treated with 2-APB (2-aminoethoxydiphenyl borate) as a pre-activator for TRPV ion channels, and intracellular calcium changes, which are triggered in response to the 2-APB treatment, were evaluated using a Fluo-4-AM fluorescent dye on a real time basis.

f11 neuron cell lines = experiment: Inhibitory efficacy of fibroblast cell proliferation; type: cell-based; conditions: f11 neuron cell lines treated for 72 hours; compared to control groups; FIG. 10
Procedure: After f11 neuron cell lines were treated with the compound of Formula 1 for 72 hours, the extents of cell differentiation were first compared/evaluated (see FIG. 10). […] Since fibroblast cell proliferation accompanies excessive collagen synthesis to make up for the dermis damaged by skin injury, scars can be left even after the damage recovery. Therefore, scar prevent or treating efficacy can be exerted by inhibiting the fibroblast proliferation.

SMILES	increase in the intracellular calcium level induced by 2-APB (TRPV ion channels; fl 1 cell lines pre-treated with the compound for 24 hours, FIG. 9)	fibroblast cell proliferation and differentiation inhibitory efficacy (f11 neuron cell lines)	intracellular calcium level after treatment with TRPV pre-activator (TRPV ion channels; fl 1 cell lines, transient within 20 seconds, reverted to base level in about 5 minutes)
CC(C)c1ccc2c(c1)C=C[C@H]1[C@](C)(C(=O)O)CCC[C@]21C [Formula 1, abieta-6,8,11,13-tetraaen-18-oic acid]	strongly inhibited	improved fibroblast cell proliferation and differentiation inhibitory efficacy	
NCCOB(c1ccccc1)c1ccccc1 [Formula 2-APB, 2-aminoethoxydiphenyl borate, reference compound]			sharp increase in the intracellular calcium level
